Measured values reported in PubChem BioAssay AID330 (DTP/NCI, 2004).
Values joined by “and” are separate entries in the source; they are usually repeats but may differ in a detail not shown here. Equal entries are not always repeated. Inconclusive results and toxic doses are left out. The calls were made as follows: active = survival T/C of 150% or more; inactive = T/C below 125% in these data.

Tested on: P388 leukemia ip, CD2F1 mice, survival T/C
Assay: NCI In Vivo Anticancer Drug Screen. Data for tumor model P388 Leukemia (intraperitoneal) in CD2F1 (CDF1) mice
Details: endpoint: median survival time, higher = longer survival
How it was run: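 Mice carrying the transplanted tumor received test compound or vehicle. Survival was recorded in each group, and the value is the treated-group measurement divided by that of the vehicle-treated control group.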

[1] = dose: 60.0 mg/kg/injection, schedule: Q01DX005 (ip), vehicle: saline with Tween-80
[2] = dose: 120.0 mg/kg/injection, schedule: Q01DX005 (ip), vehicle: saline with Tween-80
[3] = dose: 240.0 mg/kg/injection, schedule: Q01DX005 (ip), vehicle: saline with Tween-80
[4] = dose: 50.0 mg/kg/injection, schedule: Q01DX005 (ip), vehicle: Klucel (hydroxypropylcellulose) (HPC)
[5] = dose: 100.0 mg/kg/injection, schedule: Q01DX005 (ip), vehicle: Klucel (hydroxypropylcellulose) (HPC)
[6] = dose: 200.0 mg/kg/injection, schedule: Q01DX005 (ip), vehicle: Klucel (hydroxypropylcellulose) (HPC)
[7] = dose: 50.0 mg/kg/injection, schedule: Q01DX001 (ip), vehicle: Klucel (hydroxypropylcellulose) (HPC)
[8] = dose: 100.0 mg/kg/injection, schedule: Q01DX001 (ip), vehicle: Klucel (hydroxypropylcellulose) (HPC)
[9] = dose: 200.0 mg/kg/injection, schedule: Q01DX001 (ip), vehicle: Klucel (hydroxypropylcellulose) (HPC)

Measured: T/C

Cc1cc2c(cc1C)NC1=C(N2)OC(c2ccc(Cl)cc2)C1=O (centres undefined)
inactive: [1] 92 % of control | [2] 89 % of control | [3] 92 % of control

COC(=O)c1c(C(=O)Nc2ccc(Cl)cc2)c(C)n(NC(N)=O)c1C
inactive: dose: 50.0 mg/kg/injection, schedule: Q01DX005 (ip), vehicle: saline with Tween-80 95 % of control | dose: 100.0 mg/kg/injection, schedule: Q01DX005 (ip), vehicle: saline with Tween-80 95 % of control | dose: 200.0 mg/kg/injection, schedule: Q01DX005 (ip), vehicle: saline with Tween-80 101 % of control

Cc1ccccc1N=C(N)Nc1ccccc1C
inactive: dose: 2.5 mg/kg/injection, schedule: Q01DX009 (ip), vehicle: saline with Tween-80 95 % of control | dose: 5.0 mg/kg/injection, schedule: Q01DX009 (ip), vehicle: saline with Tween-80 100 % of control | dose: 10.0 mg/kg/injection, schedule: Q01DX009 (ip), vehicle: saline with Tween-80 100 % of control

CSc1ncc(Br)c(C(=O)O)n1
inactive: dose: 100.0 mg/kg/injection, schedule: Q04DX003 (ip), vehicle: saline with Tween-80 100 % of control | dose: 200.0 mg/kg/injection, schedule: Q04DX003 (ip), vehicle: saline with Tween-80 100 % of control | dose: 400.0 mg/kg/injection, schedule: Q04DX003 (ip), vehicle: saline with Tween-80 100 % of control

CCOC(=O)C1=C(C(=O)c2ccc(OC)cc2)C(c2ccc([N+](=O)[O-])cc2)C(C(=O)c2ccc(OC)cc2)=C(C(=O)OCC)N1
inactive: [1] 89 % of control | [2] 89 % of control | [3] 93 % of control

CC(O)CCC1CCCCN1 (centres undefined)
inactive: dose: 50.0 mg/kg/injection, schedule: Q01DX005 (ip), vehicle: saline 109 % of control | dose: 100.0 mg/kg/injection, schedule: Q01DX005 (ip), vehicle: saline 100 % of control | dose: 200.0 mg/kg/injection, schedule: Q01DX005 (ip), vehicle: saline 101 % of control

CCC[CH2][Hg][Cl]
inactive: dose: 3.3 mg/kg/injection, schedule: Q01DX009 (ip), vehicle: other 95 % of control | dose: 5.0 mg/kg/injection, schedule: Q01DX009 (ip), vehicle: other 100 % of control | dose: 7.5 mg/kg/injection, schedule: Q01DX009 (ip), vehicle: other 118 % of control

Cc1ccccc1N1C(=O)C(=O)C(c2nc3ccccc3s2)C(=O)C1=O
inactive: [1] 99 % of control | [2] 98 % of control | [3] 97 % of control

CC(=O)OCc1cocc1COC(C)=O
inactive: [4] 100 % of control and 103 % of control | [5] 107 % of control and 98 % of control | [6] 117 % of control and 94 % of control

CS(=O)(=O)OCC1OCC(OS(C)(=O)=O)C1O (centres undefined)
inactive: [7] 101 % of control | [8] 102 % of control | [9] 101 % of control

c1ccc2c(c1)N=Nc1ccccc1OCCOCCOCCOCCO2
inactive: dose: 100.0 mg/kg/injection, schedule: Q04DX002 (ip), vehicle: saline with Tween-80 106 % of control | dose: 200.0 mg/kg/injection, schedule: Q04DX002 (ip), vehicle: saline with Tween-80 100 % of control | dose: 400.0 mg/kg/injection, schedule: Q04DX002 (ip), vehicle: saline with Tween-80 99 % of control

O=C1NN(C(=O)c2ccccc2)C(c2ccccc2[N+](=O)[O-])c2c1c1ccccc1n2C(=O)c1ccccc1 (centres undefined)
inactive: [4] 97 % of control | [5] 95 % of control | [6] 88 % of control

O=C1c2c(Cl)c(Cl)c(Cl)c(Cl)c2C(=O)C2(Cl)CC=CCC12Cl (centres undefined)
inactive: dose: 6.25 mg/kg/injection, schedule: Q01DX005 (ip), vehicle: Klucel (hydroxypropylcellulose) (HPC) 101 % of control | dose: 12.5 mg/kg/injection, schedule: Q01DX005 (ip), vehicle: Klucel (hydroxypropylcellulose) (HPC) 95 % of control | dose: 25.0 mg/kg/injection, schedule: Q01DX005 (ip), vehicle: Klucel (hydroxypropylcellulose) (HPC) 101 % of control

CC(N)(CSCc1ccccc1)C(=O)O (centres undefined)
inactive: dose: 25.0 mg/kg/injection, schedule: Q01DX009 (ip), vehicle: Klucel (hydroxypropylcellulose) (HPC) 100 % of control | dose: 50.0 mg/kg/injection, schedule: Q01DX009 (ip), vehicle: Klucel (hydroxypropylcellulose) (HPC) 103 % of control | dose: 100.0 mg/kg/injection, schedule: Q01DX009 (ip), vehicle: Klucel (hydroxypropylcellulose) (HPC) 107 % of control

COc1ccc2nc3c(C)c4ccn(Cc5ccc(I)cc5)cc4c(C)c3c2c1
inactive: dose: 13.5 mg/kg/injection, schedule: Q04DX002 (ip), vehicle: saline with Tween-80 116 % of control | dose: 27.0 mg/kg/injection, schedule: Q04DX002 (ip), vehicle: saline with Tween-80 113 % of control | dose: 54.0 mg/kg/injection, schedule: Q04DX002 (ip), vehicle: saline with Tween-80 122 % of control | dose: 108.0 mg/kg/injection, schedule: Q04DX002 (ip), vehicle: saline with Tween-80 105 % of control

C[C@@H]1C[C@](O)([C@@H](C)Cl)C(=O)O[C@@H]2CCN3CC=C(COC(=O)[C@]1(C)O)[C@H]23
inactive: dose: 2.75 mg/kg/injection, schedule: Q01DX009 (ip), vehicle: saline 104 % of control | dose: 3.75 mg/kg/injection, schedule: Q01DX009 (ip), vehicle: saline 103 % of control | dose: 5.5 mg/kg/injection, schedule: Q01DX009 (ip), vehicle: saline 104 % of control | dose: 7.5 mg/kg/injection, schedule: Q01DX009 (ip), vehicle: saline 106 % of control | dose: 11.0 mg/kg/injection, schedule: Q01DX009 (ip), vehicle: saline 113 % of control | dose: 15.0 mg/kg/injection, schedule: Q01DX009 (ip), vehicle: saline 95 % of control | dose: 22.0 mg/kg/injection, schedule: Q01DX009 (ip), vehicle: saline 104 % of control | dose: 30.0 mg/kg/injection, schedule: Q01DX009 (ip), vehicle: saline 106 % of control

COc1cc2c(-c3c4c5c(cc(OC)c(OC)c5c5cc(OC)c(OC)cc35)CCN4C)c3c4c(cc(OC)c(OC)c4c2cc1OC)CCN3C
inactive: dose: 100.0 mg/kg/injection, schedule: Q04DX002 (ip), vehicle: saline 101 % of control | dose: 200.0 mg/kg/injection, schedule: Q04DX002 (ip), vehicle: saline 102 % of control | dose: 400.0 mg/kg/injection, schedule: Q04DX002 (ip), vehicle: saline 101 % of control

O=C(CCc1cc2[nH]c1c(-c1ccccc1)c1nc(c(-c3ccccc3)c3ccc([nH]3)c(-c3ccccc3)c3nc(c2-c2ccccc2)C=C3)C=C1)NCCCn1ccnc1
inactive: [7] 99 % of control | [8] 91 % of control | [9] 91 % of control | dose: 400.0 mg/kg/injection, schedule: Q01DX001 (ip), vehicle: Klucel (hydroxypropylcellulose) (HPC) 96 % of control

CCc1nc(N)nc(N)c1-c1ccc(Cl)c(Cl)c1.[Cl][Pd][Cl]
inactive: dose: 12.5 mg/kg/injection, schedule: Q04DX003 (ip), vehicle: saline with Tween-80 95 % of control

O=C(O)c1ccc(NC(=S)NNC(=O)c2ccncc2)cc1
inactive: dose: 100.0 mg/kg/injection, schedule: Q04DX002 (ip), vehicle: Klucel (hydroxypropylcellulose) (HPC) 99 % of control | dose: 200.0 mg/kg/injection, schedule: Q04DX002 (ip), vehicle: Klucel (hydroxypropylcellulose) (HPC) 102 % of control | dose: 400.0 mg/kg/injection, schedule: Q04DX002 (ip), vehicle: Klucel (hydroxypropylcellulose) (HPC) 100 % of control

CCOC(=O)c1nc(C)n2cc([N+](=O)[O-])ccc12
inactive: dose: 2.0 mg/kg/injection, schedule: Q01DX009 (ip), vehicle: saline 86 % of control | dose: 4.0 mg/kg/injection, schedule: Q01DX009 (ip), vehicle: saline 91 % of control | dose: 8.0 mg/kg/injection, schedule: Q01DX009 (ip), vehicle: saline 88 % of control

CCOP(=O)(OCC)Oc1cnn(C)c(=O)c1SCC
inactive: dose: 0.78 mg/kg/injection, schedule: Q01DX005 (ip), vehicle: saline 98 % of control
